Experiment: Rabbit Cornea Homogenate stability (esterase) assay, Method 2
Assay type: in vitro ADME
Details: for Esterase % Lifitegrast formation at 45 min: 37° C., Method 2 (DPBS pH 7.4); for API Formation rate (%/min): Method 2
Procedure: Determining Rabbit Cornea Homogenate stability of the test compounds was performed using HPLC-MS or UPLC-MS. The assay was performed at two concentrations of Rabbit Cornea Homogenate (0.15 mg/mL and 0.45 mg/mL total protein) so that any hydrolysis observed can be assigned as esterase dependent or not.
Three to five rabbit corneas (e.g. New Zealand Whites (NZW) or Dutch Belted (DB)) of approx. 50 mg each were sliced and scraped with a scalpel and tweezers until reduced to small (1-3 mm), thin pieces. These were transferred into a glass vial containing approximately 2 mL of cold DPBS pH 7.4 buffer.
Sample was cooled intermittently on ice and shear homogenized for 3 minutes, then centrifuged for 3 min at 13,000 g. The supernatant was pipetted off into a vial, and total protein concentration determined at 280 nm. Sample was stored at −78° C.
10 mM Compound DMSO stocks were diluted to 10 μM in a glass vial: 10 μL of 10 mM Compound stock was added to 9,990 μL DPBS, pH 7.4 buffer. Esterase homogenate was diluted to 300 ng/μL and 900 ng/μL in DPBS. […]
A heater shaker was set to 37° C. Into a suitable 96 well plate (Run Plate), 80 μL of 300 or 900 ng/μL esterase homogenate was pipetted into two rows as compounds were analyzed in duplicate (0 min, 2 min, 5 min, 10 min, 20 min and 45 min). The plate was sealed and then warmed at 37° C. for 5 min.
Two 96 shallow-well plates were placed on ice (Kill Plates). To these, 180 μL of 60:40 MeCN-H2O+0.1% acetic acid were added to required rows. The plates were sealed to minimise evaporation.
To both rows of the Run Plate, 80 μL of 10 μM compound solution was added. At the appropriate time point, 20 μL of the assay mixture was added to the matching kill plate well containing 180 μL of 60:40 cold MeCN-H2O+0.1% acetic acid. For lipoic acid analysis, samples were analysed as soon as practicable by LCMS (Waters Xevo TQ-S). For parent conjugate and parent analysis the samples were diluted further 1 in 10: 20 μL supernatant was added to 180 μL of 50:50 MeCN—H2O.
Parent conjugate, parent and keratolytic concentrations were determined against appropriate standard response curves and the half-life (T½) of the parent conjugate was calculated using the peak area or the measured concentration of the parent conjugate at each time point in the linear region of the log-linear plot.

[1] = Cornea Homogenate Conc 0.15 mg/mL
[2] = Cornea Homogenate Conc 0.45 mg/mL

| SMILES | API Formation rate (%/min) [1] | API Formation rate (%/min) [2] | Esterase % Lifitegrast formation at 45 min [1] | Esterase % Lifitegrast formation at 45 min [2] |
| --- | --- | --- | --- | --- |
| CS(=O)(=O)c1cccc(C[C@H](NC(=O)c2c(Cl)cc3c(c2Cl)CCN(C(=O)c2ccc4ccoc4c2)C3)C(=O)OCCO)c1 [Compound 32] | a (API formation rate <0.5%/min) | b (API formation rate 0.5-1.0%/min) | A (percent active pharmaceutical ingredient (API) formation <25%) | B (percent API formation 25% to 50%) |
| CC(=O)N[C@@H](CS)C(=O)OCCOCCOCCOCCOC(=O)OC(C)OC(=O)[C@H](Cc1cccc(S(C)(=O)=O)c1)NC(=O)c1c(Cl)cc2c(c1Cl)CCN(C(=O)c1ccc3ccoc3c1)C2 (stereo partly drawn) [Compound 29] | a (API formation rate <0.5%/min) | a (API formation rate <0.5%/min) | A (percent active pharmaceutical ingredient (API) formation <25%) | A (percent active pharmaceutical ingredient (API) formation <25%) |
| CS(=O)(=O)c1cccc(C[C@H](NC(=O)c2c(Cl)cc3c(c2Cl)CCN(C(=O)c2ccc4ccoc4c2)C3)C(=O)OCCCO)c1 [Compound 33] | b (API formation rate 0.5-1.0%/min) | c (API formation rate 1.0-1.5%/min) | B (percent API formation 25% to 50%) | B (percent API formation 25% to 50%) |
| CC(=O)N[C@@H](CS)C(=O)OCCOCCOCCOCCOCCOCCOCCOCCOC(=O)OC(C)OC(=O)[C@H](Cc1cccc(S(C)(=O)=O)c1)NC(=O)c1c(Cl)cc2c(c1Cl)CCN(C(=O)c1ccc3ccoc3c1)C2 (stereo partly drawn) [Compound 30] | a (API formation rate <0.5%/min) | a (API formation rate <0.5%/min) | A (percent active pharmaceutical ingredient (API) formation <25%) | A (percent active pharmaceutical ingredient (API) formation <25%) |
| CS(=O)(=O)c1cccc(C[C@H](NC(=O)c2c(Cl)cc3c(c2Cl)CCN(C(=O)c2ccc4ccoc4c2)C3)C(=O)OCCOC(=O)CCCC[C@@H]2CCSS2)c1 [Compound 34] | a (API formation rate <0.5%/min) | a (API formation rate <0.5%/min) | A (percent active pharmaceutical ingredient (API) formation <25%) | A (percent active pharmaceutical ingredient (API) formation <25%) |
| CS(=O)(=O)c1cccc(C[C@H](NC(=O)c2c(Cl)cc3c(c2Cl)CCN(C(=O)c2ccc4ccoc4c2)C3)C(=O)OCCCOC(=O)CCCC[C@@H]2CCSS2)c1 [Compound 35] | a (API formation rate <0.5%/min) | a (API formation rate <0.5%/min) | A (percent active pharmaceutical ingredient (API) formation <25%) | A (percent active pharmaceutical ingredient (API) formation <25%) |
| CS(=O)(=O)c1cccc(C[C@H](NC(=O)c2c(Cl)cc3c(c2Cl)CCN(C(=O)c2ccc4ccoc4c2)C3)C(=O)OCOC(=O)CCCC[C@@H]2CCSS2)c1 [Compound 36] | a (API formation rate <0.5%/min) | b (API formation rate 0.5-1.0%/min) | A (percent active pharmaceutical ingredient (API) formation <25%) | B (percent API formation 25% to 50%) |
| CC(=O)N1C(C(=O)OC(C)OC(=O)[C@H](Cc2cccc(S(C)(=O)=O)c2)NC(=O)c2c(Cl)cc3c(c2Cl)CCN(C(=O)c2ccc4ccoc4c2)C3)CSC1(C)C (stereo partly drawn) [Compound 26] | a (API formation rate <0.5%/min) | a (API formation rate <0.5%/min) | A (percent active pharmaceutical ingredient (API) formation <25%) | A (percent active pharmaceutical ingredient (API) formation <25%) |
| CC(=O)NC(CSSCC(NC(C)=O)C(=O)OC(C)OC(=O)[C@H](Cc1cccc(S(C)(=O)=O)c1)NC(=O)c1c(Cl)cc2c(c1Cl)CCN(C(=O)c1ccc3ccoc3c1)C2)C(=O)O (stereo partly drawn) [Compound 25] | a (API formation rate <0.5%/min) | a (API formation rate <0.5%/min) | A (percent active pharmaceutical ingredient (API) formation <25%) | A (percent active pharmaceutical ingredient (API) formation <25%) |

Now from value to compound, other results behind:

| API Formation rate (%/min) [1] | API Formation rate (%/min) [2] | SMILES | Esterase % Lifitegrast formation at 45 min [1] | Esterase % Lifitegrast formation at 45 min [2] |
| --- | --- | --- | --- | --- |
| a (API formation rate <0.5%/min) | a (API formation rate <0.5%/min) | CC(=O)N[C@@H](CSSCC[C@@H](CCCCC(=O)OC(C)OC(=O)[C@H](Cc1cccc(S(C)(=O)=O)c1)NC(=O)c1c(Cl)cc2c(c1Cl)CCN(C(=O)c1ccc3ccoc3c1)C2)SSC[C@H](NC(C)=O)C(=O)O)C(=O)O (stereo partly drawn) [Compound 44] | A (percent active pharmaceutical ingredient (API) formation <25%) | A (percent active pharmaceutical ingredient (API) formation <25%) |
| a (API formation rate <0.5%/min) | a (API formation rate <0.5%/min) | CC(OC(=O)OCCOC(=O)CCCC[C@H]1CCSS1)OC(=O)[C@H](Cc1cccc(S(C)(=O)=O)c1)NC(=O)c1c(Cl)cc2c(c1Cl)CCN(C(=O)c1ccc3ccoc3c1)C2 (stereo partly drawn) [Compound 46] | A (percent active pharmaceutical ingredient (API) formation <25%) | A (percent active pharmaceutical ingredient (API) formation <25%) |
| b (API formation rate 0.5-1.0%/min) | c (API formation rate 1.0-1.5%/min) | CC(OC(=O)CCC(=O)OC(C)(C)C)OC(=O)[C@H](Cc1cccc(S(C)(=O)=O)c1)NC(=O)c1c(Cl)cc2c(c1Cl)CCN(C(=O)c1ccc3ccoc3c1)C2 (stereo partly drawn) [Compound 48] | B (percent API formation 25% to 50%) | C (percent API formation 51% to 75%) |
| c (API formation rate 1.0-1.5%/min) | c (API formation rate 1.0-1.5%/min) | CCOC(=O)CCC(=O)OC(C)OC(=O)[C@H](Cc1cccc(S(C)(=O)=O)c1)NC(=O)c1c(Cl)cc2c(c1Cl)CCN(C(=O)c1ccc3ccoc3c1)C2 (stereo partly drawn) [Compound 37] | C (percent API formation 51% to 75%) | D (percent API formation >75%) |
| b (API formation rate 0.5-1.0%/min) | c (API formation rate 1.0-1.5%/min) | CC(OC(=O)OCCCO)OC(=O)[C@H](Cc1cccc(S(C)(=O)=O)c1)NC(=O)c1c(Cl)cc2c(c1Cl)CCN(C(=O)c1ccc3ccoc3c1)C2 (stereo partly drawn) [Compound 43] | B (percent API formation 25% to 50%) | C (percent API formation 51% to 75%) |
| a (API formation rate <0.5%/min) | a (API formation rate <0.5%/min) | CC(OC(=O)OCCCOC(=O)CCCC[C@@H]1CCSS1)OC(=O)[C@H](Cc1cccc(S(C)(=O)=O)c1)NC(=O)c1c(Cl)cc2c(c1Cl)CCN(C(=O)c1ccc3ccoc3c1)C2 (stereo partly drawn) [Compound 47] | A (percent active pharmaceutical ingredient (API) formation <25%) | A (percent active pharmaceutical ingredient (API) formation <25%) |

— patent US20230399317A1, “COMPOUNDS AND METHODS FOR THE TREATMENT OF OCULAR DISORDERS” (Azura Ophthalmics Ltd., priority 2020, published 2023)
